Test results published in patent US20230158025A1 (UNIVERSITY OF UTAH RESEARCH FOUNDATION, priority 2020, published 2023).
Read-outs that look alike come from different tables or passages of the source.

Legend:
[1] = biological target: recombinant human GALK1 (Homo sapiens, UniProt P51570); assay: hGALK1 biochemical activity assay (Kinase-Glo Plus, ATP depletion)
Summary of the method: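 Recombinant human or mouse GALK1 (5 nM, with 100 μM galactose, in the added enzyme solution) was run with ATP (35 μM in the substrate solution) in HEPES pH 8.0 buffer. Compounds were tested at 11 1/3-step concentrations from 57.4 μM to 0.97 nM. After 1 h at room temperature, remaining ATP was read by Kinase-Glo Plus luminescence.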

[2] = rat microsomal stability (RLM); details: for Metab. Stabil. (m): microsomal half-life; for half-life: rat, rat liver microsomes
[3] = biological target: recombinant mouse GALK1 (Mus musculus, UniProt Q9R0N0); assay: mGALK1 biochemical activity assay (Kinase-Glo Plus, ATP depletion)
Sequence of recombinant mouse GALK1 (Q9R0N0 whole entry): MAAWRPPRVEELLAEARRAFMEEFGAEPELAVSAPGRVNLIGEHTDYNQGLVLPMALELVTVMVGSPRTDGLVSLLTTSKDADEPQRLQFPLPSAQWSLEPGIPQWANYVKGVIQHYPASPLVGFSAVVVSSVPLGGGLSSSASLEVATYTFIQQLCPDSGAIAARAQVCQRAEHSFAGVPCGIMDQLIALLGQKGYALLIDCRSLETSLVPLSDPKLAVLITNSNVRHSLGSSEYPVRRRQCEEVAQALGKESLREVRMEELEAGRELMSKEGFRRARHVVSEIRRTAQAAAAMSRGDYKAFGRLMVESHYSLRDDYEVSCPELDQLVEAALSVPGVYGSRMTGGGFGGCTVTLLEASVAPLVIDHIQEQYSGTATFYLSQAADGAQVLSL
Summary of the method: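 Recombinant GALK1 (5 nM) with 100 μM galactose; GALK1 turnover read as ATP depletion by Kinase-Glo Plus luminescence. Reaction ran 1 h at room temperature before detection reagent was added.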

[4] = biological target: T1, hGALK1m (Homo sapiens, UniProt P51570, E253A/K252A); assay: in vitro hGALK1 activity assay of the structure-based optimisation (Example 12, Tables 17-20); format: biochemical; details: for Emax: Tables 18-19, read-out: Max Response (%)
T1 construct: made in house; host or cells: E. coli HMS174
T1 sequence (P51570 whole entry K252A/E253A): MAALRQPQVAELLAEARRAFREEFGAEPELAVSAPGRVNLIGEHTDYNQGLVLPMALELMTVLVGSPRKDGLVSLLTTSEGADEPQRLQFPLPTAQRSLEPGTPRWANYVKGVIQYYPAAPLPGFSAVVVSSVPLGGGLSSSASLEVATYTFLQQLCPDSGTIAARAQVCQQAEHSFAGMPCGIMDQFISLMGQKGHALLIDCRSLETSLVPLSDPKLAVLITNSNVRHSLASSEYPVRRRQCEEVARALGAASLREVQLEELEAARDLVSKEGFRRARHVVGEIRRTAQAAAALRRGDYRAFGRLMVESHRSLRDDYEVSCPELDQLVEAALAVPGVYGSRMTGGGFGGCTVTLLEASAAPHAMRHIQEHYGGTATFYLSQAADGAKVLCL
Description: In vitro hGALK1 activity assays were performed as previously described. Liu et al., Bioorg. Med. Chem. Lett. 25(3): 721-727 (2015), which is incorporated by reference herein for the specific teachings thereof. The biochemical assay was performed by coupling the activity of recombinant human or mouse GALK1 to the Kinase-Glo Plus luminescent ATP detection kit, using ATP depletion as a measure of GALK1 turnover. Specifically, three μL/well of ATP substrate solution (35 μM ATP) in assay buffer (20 mM HEPES pH 8.0, 5 mM MgCl2, 60 mM NaCl, 1 mM DTT, 0.01% BSA final concentration) was dispensed into 1536-well assay plates (Greiner, white solid-bottom medium-binding plates). Aliquots of compound (23 nL solubilized in DMSO) were transferred to the assay plates using a Kalypsys 1536-well pintool such that 11 concentrations with 1/3 dilutions ranging from 57.4 μM-0.97 nM are tested. One μL/well of GALK-galactose solution (5 nM GALK1, 100 μM galactose) in assay buffer was then added, yielding a final reaction volume of 4 μL/well. Following a 1-hour room temperature incubation, 4 μL of Kinase-Glo Plus detection reagent was added to provide an ATP-dependent luminescent readout (final assay volume: 8 μL/well). Luminescence was detected using a ViewLux plate reader (PerkinElmer) after a 10-minute incubation, using a 1 second exposure time and 2× binning.
The in vitro hGALK1 activity assay was performed as previously described. Liu et al., Bioorg. Med. Chem. Lett. 25(3): 721-727 (2015). For the measurement of cellular Gal-1P reduction, compounds at different concentrations were added to cultured patient fibroblast at 80% confluency. After incubating the compounds for 16 hours, 10 mM galactose was added to the culture. After another 4 hours, cells were washed with cold PBS buffer 3× and harvested for gal-1P measurement, according to the previously published method. Liu et al., Bioorg. Med. Chem. Lett. 25(3): 721-727 (2015).

[5] = PAMPA permeability; details: for Papp: PAMPA, ADME P: PAMPA permeability (class), Tables 17-19, class probably colour-coded, colour lost
[6] = aqueous kinetic solubility
[7] = Tables 2-15, 35 μM ATP, 100 μM galactose, 1 h, bracketed figure after some values (e.g. −1.2) is undefined and not reported, read-out: hGALK IC50
[8] = Tables 2-15, 35 μM ATP, 100 μM galactose, 1 h, bracketed figure after some values is undefined and not reported, read-out: mGALK IC50
[9] = recombinant mouse GALK1, Kinase-Glo Plus ATP depletion, read-out: mGALK
[10] = Tables 18-20 and text of Example 12
[11] = recombinant human GALK1, Kinase-Glo Plus ATP depletion, read-out: hGALK
[12] = Tables 18-19 and text of Example 12
[13] = Tables 2-15, 35 μM ATP, 100 μM galactose, 1 h, bracketed figure after some values is undefined and not reported
[14] = recombinant mouse GALK1, Kinase-Glo Plus ATP depletion

Sequence of recombinant human GALK1 (P51570 whole entry): as the sequence (P51570 whole entry K252A/E253A) above, with A252K, A253E counted along it

Row | IC50 [1, 7] | Metab. Stabil. (m) [2] | half-life [2] | IC50 [3, 8] | IC50 [3, 9] | Emax [4] | IC50 [4, 10] | fold improvement of potency (IC50) versus parent compound ([4]; increase in potency relative to the unsubstituted parent) | Papp [5] | Sol. [6] | IC50 [1, 11] | change of potency versus parent compound (in words) [4] | IC50 [4, 12] | Perm. (1 × 10^−6 cm/sec) [5] | hGALK IC50 ([1]; Tables 2-15, 35 μM ATP, 100 μM galactose, 1 h, bracketed figure after some values (e.g. −1.2) is undefined and not reported) | hGALK (μM) ([1]; recombinant human GALK1, Kinase-Glo Plus ATP depletion) | mGALK IC50 [3, 13] | mGALK (μM) [3, 14] | fold decrease of potency versus parent compound ([4]; loss of potency relative to the unsubstituted parent) | Compound
1 | 0.97 µM | >30 m | < 10 min | 6.85 µM | 6.85 µM | 100% | 0.365 µM | 2.6 fold | < 10 ×10⁻⁶ cm/s | >76 µg/mL | – | – | – | – | – | – | – | – | – | CC1=C(C(=O)Nc2cc(C(=O)O)ccn2)C(c2ccccc2Cl)N=C(Nc2nc3cccc(C)c3o2)N1 (stereo not shown) [Compound 15, 2-(4-(2-chlorophenyl)-6-methyl-2-((7-methylbenzo[d]oxazol-2-yl)amino)-1,4-dihydropyrimidine-5-carboxamido)isonicotinic acid]
2 | – | >30 m | < 10 min | 48.5 µM | 48.6 µM | 100% | – | – | < 10 ×10⁻⁶ cm/s | 61.135 µg/mL | 21.7 µM | greatly compromised the potencies | > 15 µM | <1 1 × 10^−6 cm/sec | – | – | – | – | – | CC1=C(C(=O)Nc2cc(C(=O)O)ccn2)C(c2ccccc2Cl)N=C(Nc2nc3cccc(C(F)(F)F)c3o2)N1 (stereo not shown) [Compound 16, 2-(4-(2-chlorophenyl)-6-methyl-2-((7-(trifluoromethyl)benzo[d]oxazol-2-yl)amino)-1,4-dihydropyrimidine-5-carboxamido)isonicotinic acid]
3 | 1.93 µM | >30 m | < 10 min | 9.68 µM | 9.68 µM | 100% | – | – | < 10 ×10⁻⁶ cm/s | 57.5 µg/mL | – | did not change the potency | 1 µM | <1 1 × 10^−6 cm/sec | – | – | – | – | – | CC1=C(C(=O)Nc2cc(C(=O)O)ccn2)C(c2ccccc2Cl)N=C(Nc2nc3cccc(Cl)c3o2)N1 (stereo not shown) [Compound 17, 2-(2-((7-chlorobenzo[d]oxazol-2-yl)amino)-4-(2-chlorophenyl)-6-methyl-1,4-dihydropyrimidine-5-carboxamido)isonicotinic acid]
4 | – | >30 m | < 10 min | 17.2 µM | 17.2 µM | 100% | – | – | < 10 ×10⁻⁶ cm/s | 3.5 µg/mL | 9.68 µM | – | 5.5 µM | <1.3 1 × 10^−6 cm/sec | – | – | – | – | – | CC1=C(C(=O)Nc2cc(C(=O)O)ccn2)C(c2ccccc2Cl)N=C(Nc2nc3c(C)cccc3o2)N1 (stereo not shown) [Compound 18, 2-(4-(2-chlorophenyl)-6-methyl-2-((4-methylbenzo[d]oxazol-2-yl)amino)-1,4-dihydropyrimidine-5-carboxamido)isonicotinic acid]
5 | – | >30 m | < 10 min | – | – | 88% | – | – | < 10 ×10⁻⁶ cm/s | 47.8 µg/mL | – | greatly compromised the potencies | > 15 µM | – | inactive | in- active | inactive | in- active | – | CC1=C(C(=O)Nc2cc(C(=O)O)ccn2)C(c2ccccc2Cl)N=C(Nc2nc3cccc(OC(F)(F)F)c3o2)N1 (stereo not shown) [Compound 21, 2-(4-(2-chlorophenyl)-6-methyl-2-((7-(trifluoromethoxy)benzo[d]oxazol-2-yl)amino)-1,4-dihydropyrimidine-5-carboxamido)isonicotinic acid]
6 | – | >30 m | < 10 min | – | – | 80% | – | – | < 10 ×10⁻⁶ cm/s | 65.7 µg/mL | 21.7 µM | greatly compromised the potencies | > 15 µM | <1 1 × 10^−6 cm/sec | – | – | inactive | in- active | 3.6 fold | COc1cccc2nc(NC3=NC(c4ccccc4Cl)C(C(=O)Nc4cc(C(=O)O)ccn4)=C(C)N3)oc12 (stereo not shown) [Compound 22, 2-(4-(2-chlorophenyl)-2-((7-methoxybenzo[d]oxazol-2-yl)amino)-6-methyl-1,4-dihydropyrimidine-5-carboxamido)isonicotinic acid]
7 | – | >30 m | < 10 min | 4.32 µM | 4.32 µM | 100% | 0.258 µM | – | < 10 ×10⁻⁶ cm/s | 40.6 µg/mL | 0.86 µM | little effect on the potency | – | <1 1 × 10^−6 cm/sec | – | – | – | – | – | CC1=C(C(=O)Nc2cc(C(=O)O)ccn2)C(c2ccc(F)cc2Cl)N=C(Nc2nc3ccc(F)cc3o2)N1 (stereo not shown) [Compound 45, 2-(4-(2-chloro-4-fluorophenyl)-2-((6-fluorobenzo[d]oxazol-2-yl)amino)-6-methyl-1,4-dihydropyrimidine-5-carboxamido)isonicotinic acid]
8 | – | >30 m | < 10 min | 3.85 µM | 3.85 µM | 85% | 0.345 µM | – | < 10 ×10⁻⁶ cm/s | <1 µg/mL | 1.09 µM | little effect on the potency | – | <1 1 × 10^−6 cm/sec | – | – | – | – | – | CC1=C(C(=O)Nc2cc(C(=O)O)ccn2)C(c2ccc(Cl)cc2Cl)N=C(Nc2nc3ccc(F)cc3o2)N1 (stereo not shown) [Compound 47, 2-(4-(2,4-dichlorophenyl)-2-((6-fluorobenzo[d]oxazol-2-yl)amino)-6-methyl-1,4-dihydropyrimidine-5-carboxamido)isonicotinic acid]
9 | 8.63 µM | >30 m | < 10 min | 21.7 µM | 21.7 µM | 100% | – | – | < 10 ×10⁻⁶ cm/s | 55.5 µg/mL | 8.63 µM | compromised the potency | 3.6 µM | – | – | – | – | – | – | CC1=C(C(=O)Nc2cc(C(=O)O)ccn2)C(c2cccc(Cl)c2Cl)N=C(Nc2nc3ccc(F)cc3o2)N1 (stereo not shown) [Compound 49, 2-(4-(2,3-dichlorophenyl)-2-((6-fluorobenzo[d]oxazol-2-yl)amino)-6-methyl-1,4-dihydropyrimidine-5-carboxamido)isonicotinic acid]
10 | 19.3 µM | >30 m | < 10 min | 27.3 µM | 27.3 µM | 97% | – | – | < 10 ×10⁻⁶ cm/s | 70.1 µg/mL | 19.3 µM | compromised the potency | 2.4 µM | – | – | – | – | – | – | CC1=C(C(=O)Nc2cc(C(=O)O)ccn2)C(c2cccc(C(F)(F)F)c2Cl)N=C(Nc2nc3ccc(F)cc3o2)N1 (stereo not shown) [Compound 51, 2-(4-(2-chloro-3-(trifluoromethyl)phenyl)-2-((6-fluorobenzo[d]oxazol-2-yl)amino)-6-methyl-1,4-dihydropyrimidine-5-carboxamido)isonicotinic acid]
